Assay results reported in patent US20050124618A1, “Methods of modulating angiogenesis and cancer cell proliferation” (priority 2003, published 2005).
Entries after “also recorded” stand apart in the source; their conditions may differ.

What was measured:
[1] = tested on: U251 human glioma cells; experiment: Flow cytometry of cell cycle distribution in U251 cells; type: cell-based; conditions: 10 μM HET0016, 24 and 48 hr
Protocol: Flow Cytometry: Cells were cultured in 100-mm dishes at densities that ensured exponential growth at the time of harvest. The harvesting and processing protocols used to detect DNA by flow cytometry with propidium iodide (PI) have been described previously (Reiners et al., Carcinogenesis 20: 1561-1566, 1999). Cells were analyzed with a Becton Dickinson FACScan in the Wayne State University Flow Cytometry Core Facility, Detroit, Mich. Percentages of cells in the G0/G1, S, and G2/M stages of the cell cycle were determined with a DNA histogram-fitting program (MODFIT; Verity Software, Topsham, Me.). A minimum of 10^4 events/sample were collected.

[2] = tested on: phospho-tyrosine and phospho-Ser/Thr-Pro proteins; experiment: Western blot of tyrosine and serine/threonine protein phosphorylation in U251 cells; type: cell-based, human
Protocol: (§1) They were then pelleted by centrifugation at 1,000 g for 5 min at 4° C. Cells were lysed by adding RIPA buffer [20 mM HEPES (pH 7.4), 100 mM NaCl, 1% Nonidet P-40, 0.1% SDS, 1% deoxycholic acid, 10% glycerol, 1 mM EDTA, 1 mM NaVO3, 50 mM NaF, and Protease Inhibitors Set 1 (Calbiochem, La Jolla, Calif.)]. Plates were then scraped and cells collected in a 1.5-ml centrifuge tube, followed by incubation on ice for 30 min. Homogenates of the cell suspension were centrifuged for 10 min at 14,000 g and 4° C.; the pellets were discarded and protein concentrations in the supernatant determined by bicinchoninic acid (BCA) protein assay.
(§2) Typically, 20 μg of protein was separated on a 14% Tris-glycine gel (Invitrogen) and electroblotted on a PVDF membrane (Biotrace, Bothell, Wash.). Membranes were blocked for 1 h at room temperature with blocking buffer [0.2% I-Block reagent (Tropix, Bedford, Mass.), 0.1% Tween-20 in […]] before incubation with primary antibodies in blocking buffer (overnight at 4° C.). […] Both phospho-tyrosine (Y102) and phospho-serine/threonine-Pro MPM2 were detected using a 1:2000 dilution of the corresponding antibodies, whereas phospho-p44/p42MAPK and phospho-SAPK/JNK were detected using 1:1000 antibody dilutions. […]

[3] = tested on: SAPK/JNK; experiment: Western blot of phospho-SAPK/JNK in U251 cells; type: cell-based, human; conditions: 10 μM HET0016, 24 and 48 hr
Protocol: as §1, §2

[4] = tested on: SAPK/JNK; experiment: Western blot of phospho-SAPK/JNK in 9L cells; type: cell-based, rat; conditions: 10 μM HET0016; 4 hr, 24 hr, 48 hr
Protocol: They were then pelleted by centrifugation at 1,000 g for 5 min at 4° C. The cells were lysed by adding RIPA buffer [20 mM HEPES (pH 7.4), 100 mM NaCl, 1% Nonidet P-40, 0.1% SDS, 1% deoxycholic acid, 10% glycerol, 1 mM EDTA, 1 mM NaVO3, 50 mM NaF, and protease inhibitors Set 1 (Calbiochem, La Jolla, Calif.)]. The plates were then scraped and the cells were collected in a 1.5-ml centrifuge tube, followed by incubation on ice for 30 min. The cell homogenates were centrifuged for 10 min at 14,000 g and 4° C.; the pellets were discarded and the protein concentrations in the supernatant determined by bicinchoninic acid (BCA) protein assay.
Typically, 20 μg of protein obtained from the cell homogenates was separated on a 14% Tris-glycine gel (Invitrogen) and transferred to a PVDF membrane (Biotrace, Bothell, Wash.). The membranes were blocked for 1 hr at room temperature with blocking buffer [0.2% I-Block reagent (Tropix, Bedford, Mass.), 0.1% Tween-20 in 1×PBS] and then incubated with the primary antibodies in blocking buffer overnight at 4° C. Phospho-p42/p44 MAPK (T202/Y204)(20G11), and phospho-SAPK/JNK (T183/Y185) (98F2) monoclonal antibodies were purchased from Upstate (Waltham, Mass.). […] Both phospho-p44/p42MAPK and phospho-SAPK/JNK were detected using 1:1000 antibody dilutions. […]

[5] = tested on: 20-HETE; conditions: cited from earlier work

## CCCCc1ccc(N=CNO)c(C)c1 [HET0016, N-hydroxy-N′-(4-butyl-2 methylphenyl) formamidine]
[1]
  effect on cell cycle distribution: arresting the cell cycle at G0/G1; also recorded: Cells containing G0/G1 DNA accumulated
[2]; 10 μM HET0016
  serine/threonine phosphorylation of proteins: no significant changes
[2]; 10 μM HET0016, 24 and 48 hr
  tyrosine phosphorylation of proteins: inhibition which was seen at 24 and 48 hr; also recorded: significant decreases at 24 and 48 hr
[3]
  phosphorylation of SAPK/JNK: specifically inhibited phosphorylation
[4]
  phosphorylation of SAPK/JNK: decreases the phosphorylation; also recorded: significantly reduced the phosphorylation; also recorded: inhibition appears to peak at 48 hr
[5]
  ability to reduce 20-HETE levels in vivo: reduce 20-HETE levels in vivo
